Inhibition data for one molecule are collected here from publication PMC7180948, “New Insights into 4-Anilinoquinazolines as Inhibitors of Cardiac Troponin I–Interacting Kinase (TNNi3K)” (Molecules, 2020).

A word on the inhibition: it is the drop in the measured response relative to a control, in per cent.

Common to all, as to assay: biochemical
What all share (parameters): KINOMEscan competition binding panel (Eurofins DiscoverX), single concentration, % inhibition
Holding throughout (conditions): read-out: 7 at 1 µM % inhibition

Test [1] addresses ALK(C1156Y) (Homo sapiens, UniProt Q9UM73, C1156Y). Put shortly: (§1)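 Kinome-wide profiling (KINOMEscan, >400 human kinases) was run at 1 µM compound.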
Test [2] addresses CAMK2A (Homo sapiens, UniProt Q9UQM7). In short, it runs like this: as §1
Test [3] addresses CDK4 (Homo sapiens, UniProt P11802). Put shortly: as §1
Test [4] addresses EGFR(S752-I759del) (Homo sapiens, UniProt P00533, DEL752-759). In short, it runs like this: as §1
Test [5] deals with EGFR(T790M) (Homo sapiens, UniProt P00533, T790M). In short, it runs like this: as §1
Test [6] has as its target T1, ERK2 (Homo sapiens, UniProt P28482).
T1 construct: gene MAPK1
Put shortly:
as §1

Test [7] has as its target T2, ERK8 (Homo sapiens, UniProt Q8TD08).
T2 construct: gene MAPK15
Put shortly:
as §1

For test [8], the target named is GRK4 (Homo sapiens, UniProt P32298). Put shortly: as §1
Test [9] addresses HIPK3 (Homo sapiens, UniProt Q9H422). In short, it runs like this:
as §1

Test [10] deals with T3, JAK1(JH1domain-catalytic) (Homo sapiens, UniProt P23458).
T3 construct: JH1domain-catalytic
Put shortly: as §1

Test [11] concerns the target T4, LOK (Homo sapiens, UniProt O94804).
T4 construct: gene STK10
Put shortly:
as §1

The target in test [12] is T5, MEK2 (Homo sapiens, UniProt P36507).
T5 construct: gene MAP2K2
In short, it runs like this:
as §1

In test [13] the target is MET(Y1235D) (Homo sapiens, UniProt P08581, Y1235D). In short, it runs like this: as §1
In test [14] the target is T6, MST4 (Homo sapiens, UniProt Q9P289).
T6 construct: gene STK26
Put shortly: as §1

Test [15] deals with NEK5 (Homo sapiens, UniProt Q6P3R8). In short, it runs like this: as §1
For test [16], the target named is PIK3CA(E542K) (Homo sapiens, UniProt P42336, E542K). Put shortly: as §1
Test [17] addresses PIK3CA(H1047Y) (Homo sapiens, UniProt P42336, H1047Y). In short, it runs like this: as §1
Test [18] deals with PIKFYVE (Homo sapiens, UniProt Q9Y2I7). Put shortly:
as §1

For test [19], the target named is ROS1 (Homo sapiens, UniProt P08922). Put shortly:
as §1

For test [20], the target named is T7, RPS6KA5(Kin.Dom.1-N-terminal) (Homo sapiens, UniProt O75582).
T7 construct: Kin.Dom.1-N-terminal
In short, it runs like this: as §1

The target in test [21] is T8, RPS6KA5(Kin.Dom.2-C-terminal) (Homo sapiens, UniProt O75582).
T8 construct: Kin.Dom.2-C-terminal
In short, it runs like this:
as §1

Test [22] addresses ULK1 (Homo sapiens, UniProt O75385). In short, it runs like this: as §1
The target of test [23] is T9, VEGFR2 (Homo sapiens, UniProt P35968).
T9 construct: gene KDR
Put shortly: as §1

T7 sequence (O75582 whole entry): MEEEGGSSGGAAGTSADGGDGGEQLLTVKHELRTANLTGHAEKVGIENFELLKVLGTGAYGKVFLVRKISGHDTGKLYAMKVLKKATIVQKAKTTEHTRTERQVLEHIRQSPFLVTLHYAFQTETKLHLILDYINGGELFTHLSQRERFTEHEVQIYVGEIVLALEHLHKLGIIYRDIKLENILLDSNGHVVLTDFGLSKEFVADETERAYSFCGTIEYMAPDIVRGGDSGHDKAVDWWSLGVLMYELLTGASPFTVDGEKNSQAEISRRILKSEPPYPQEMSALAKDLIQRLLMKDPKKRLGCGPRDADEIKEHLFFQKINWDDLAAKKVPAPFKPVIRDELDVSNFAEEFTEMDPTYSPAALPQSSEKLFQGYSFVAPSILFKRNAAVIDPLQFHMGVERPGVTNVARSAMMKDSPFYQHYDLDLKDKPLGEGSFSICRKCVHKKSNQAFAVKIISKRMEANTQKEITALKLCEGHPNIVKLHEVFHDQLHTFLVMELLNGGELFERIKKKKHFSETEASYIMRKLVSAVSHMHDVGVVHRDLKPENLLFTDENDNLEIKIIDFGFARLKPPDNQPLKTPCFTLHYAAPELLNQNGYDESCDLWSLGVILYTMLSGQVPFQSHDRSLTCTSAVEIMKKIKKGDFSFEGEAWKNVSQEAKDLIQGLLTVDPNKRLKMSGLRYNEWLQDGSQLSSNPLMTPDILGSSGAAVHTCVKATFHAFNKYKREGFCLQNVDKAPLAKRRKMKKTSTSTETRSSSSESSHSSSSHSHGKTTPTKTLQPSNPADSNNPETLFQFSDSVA
T8 sequence (O75582 whole entry): as above
Chain of PIK3CA(E542K) (P42336 whole entry E542K): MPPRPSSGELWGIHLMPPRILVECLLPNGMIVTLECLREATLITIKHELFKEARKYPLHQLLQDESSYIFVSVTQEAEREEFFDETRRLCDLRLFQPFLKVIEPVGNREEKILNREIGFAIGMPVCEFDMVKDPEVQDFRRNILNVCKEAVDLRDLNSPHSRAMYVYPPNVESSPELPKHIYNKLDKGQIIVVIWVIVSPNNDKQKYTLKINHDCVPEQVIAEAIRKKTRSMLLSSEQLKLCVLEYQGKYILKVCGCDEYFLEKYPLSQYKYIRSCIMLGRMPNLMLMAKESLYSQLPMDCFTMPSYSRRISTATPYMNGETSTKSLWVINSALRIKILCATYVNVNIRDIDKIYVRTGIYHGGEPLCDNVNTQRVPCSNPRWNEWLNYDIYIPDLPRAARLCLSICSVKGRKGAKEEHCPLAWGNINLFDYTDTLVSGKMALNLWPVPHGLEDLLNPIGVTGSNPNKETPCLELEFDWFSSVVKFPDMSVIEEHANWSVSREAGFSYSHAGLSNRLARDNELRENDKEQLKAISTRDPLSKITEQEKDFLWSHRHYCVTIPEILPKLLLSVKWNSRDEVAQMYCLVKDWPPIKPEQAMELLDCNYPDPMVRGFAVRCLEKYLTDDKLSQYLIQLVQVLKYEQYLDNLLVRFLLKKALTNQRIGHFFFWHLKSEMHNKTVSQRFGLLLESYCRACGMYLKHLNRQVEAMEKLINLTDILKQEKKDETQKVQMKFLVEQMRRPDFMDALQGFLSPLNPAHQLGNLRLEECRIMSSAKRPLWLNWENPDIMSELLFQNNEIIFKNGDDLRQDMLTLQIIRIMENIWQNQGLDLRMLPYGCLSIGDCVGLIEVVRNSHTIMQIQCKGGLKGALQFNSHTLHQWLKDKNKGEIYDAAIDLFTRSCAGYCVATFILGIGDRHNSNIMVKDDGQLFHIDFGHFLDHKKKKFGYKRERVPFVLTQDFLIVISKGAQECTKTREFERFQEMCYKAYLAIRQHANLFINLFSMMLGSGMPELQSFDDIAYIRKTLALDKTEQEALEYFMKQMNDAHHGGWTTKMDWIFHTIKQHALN
Chain of HIPK3 (Q9H422 whole entry): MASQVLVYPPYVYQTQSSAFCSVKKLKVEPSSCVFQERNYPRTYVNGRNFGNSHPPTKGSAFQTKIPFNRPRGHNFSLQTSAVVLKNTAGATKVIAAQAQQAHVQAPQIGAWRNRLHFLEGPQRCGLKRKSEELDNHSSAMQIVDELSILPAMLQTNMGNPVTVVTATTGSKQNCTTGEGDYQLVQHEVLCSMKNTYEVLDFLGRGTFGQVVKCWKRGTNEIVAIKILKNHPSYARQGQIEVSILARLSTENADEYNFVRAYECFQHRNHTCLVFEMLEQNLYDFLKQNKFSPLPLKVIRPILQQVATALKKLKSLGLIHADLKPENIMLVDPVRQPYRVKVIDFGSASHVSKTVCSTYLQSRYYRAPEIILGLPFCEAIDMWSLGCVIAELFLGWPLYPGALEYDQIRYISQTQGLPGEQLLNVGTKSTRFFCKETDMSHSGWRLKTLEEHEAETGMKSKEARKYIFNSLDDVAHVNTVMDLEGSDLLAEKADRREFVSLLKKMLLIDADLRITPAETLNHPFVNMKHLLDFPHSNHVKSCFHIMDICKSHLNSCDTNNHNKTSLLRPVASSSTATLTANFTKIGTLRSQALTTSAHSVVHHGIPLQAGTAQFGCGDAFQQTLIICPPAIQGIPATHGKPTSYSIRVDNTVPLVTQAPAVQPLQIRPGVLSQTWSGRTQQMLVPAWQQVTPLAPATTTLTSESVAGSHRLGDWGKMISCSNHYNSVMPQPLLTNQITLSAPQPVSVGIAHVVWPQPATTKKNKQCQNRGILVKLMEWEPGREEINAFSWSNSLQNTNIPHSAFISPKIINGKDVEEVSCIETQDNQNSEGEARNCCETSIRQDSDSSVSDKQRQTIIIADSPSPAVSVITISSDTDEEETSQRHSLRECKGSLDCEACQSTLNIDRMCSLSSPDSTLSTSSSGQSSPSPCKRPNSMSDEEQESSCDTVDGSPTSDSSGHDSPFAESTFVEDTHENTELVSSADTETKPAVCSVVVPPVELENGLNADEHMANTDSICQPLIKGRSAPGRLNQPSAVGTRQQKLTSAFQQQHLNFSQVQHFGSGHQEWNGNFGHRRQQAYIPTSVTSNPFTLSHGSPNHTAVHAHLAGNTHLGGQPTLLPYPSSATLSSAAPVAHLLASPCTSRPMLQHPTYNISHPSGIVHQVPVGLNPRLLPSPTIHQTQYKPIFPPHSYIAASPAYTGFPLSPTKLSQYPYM
Chain of EGFR(T790M) (P00533 whole entry T790M): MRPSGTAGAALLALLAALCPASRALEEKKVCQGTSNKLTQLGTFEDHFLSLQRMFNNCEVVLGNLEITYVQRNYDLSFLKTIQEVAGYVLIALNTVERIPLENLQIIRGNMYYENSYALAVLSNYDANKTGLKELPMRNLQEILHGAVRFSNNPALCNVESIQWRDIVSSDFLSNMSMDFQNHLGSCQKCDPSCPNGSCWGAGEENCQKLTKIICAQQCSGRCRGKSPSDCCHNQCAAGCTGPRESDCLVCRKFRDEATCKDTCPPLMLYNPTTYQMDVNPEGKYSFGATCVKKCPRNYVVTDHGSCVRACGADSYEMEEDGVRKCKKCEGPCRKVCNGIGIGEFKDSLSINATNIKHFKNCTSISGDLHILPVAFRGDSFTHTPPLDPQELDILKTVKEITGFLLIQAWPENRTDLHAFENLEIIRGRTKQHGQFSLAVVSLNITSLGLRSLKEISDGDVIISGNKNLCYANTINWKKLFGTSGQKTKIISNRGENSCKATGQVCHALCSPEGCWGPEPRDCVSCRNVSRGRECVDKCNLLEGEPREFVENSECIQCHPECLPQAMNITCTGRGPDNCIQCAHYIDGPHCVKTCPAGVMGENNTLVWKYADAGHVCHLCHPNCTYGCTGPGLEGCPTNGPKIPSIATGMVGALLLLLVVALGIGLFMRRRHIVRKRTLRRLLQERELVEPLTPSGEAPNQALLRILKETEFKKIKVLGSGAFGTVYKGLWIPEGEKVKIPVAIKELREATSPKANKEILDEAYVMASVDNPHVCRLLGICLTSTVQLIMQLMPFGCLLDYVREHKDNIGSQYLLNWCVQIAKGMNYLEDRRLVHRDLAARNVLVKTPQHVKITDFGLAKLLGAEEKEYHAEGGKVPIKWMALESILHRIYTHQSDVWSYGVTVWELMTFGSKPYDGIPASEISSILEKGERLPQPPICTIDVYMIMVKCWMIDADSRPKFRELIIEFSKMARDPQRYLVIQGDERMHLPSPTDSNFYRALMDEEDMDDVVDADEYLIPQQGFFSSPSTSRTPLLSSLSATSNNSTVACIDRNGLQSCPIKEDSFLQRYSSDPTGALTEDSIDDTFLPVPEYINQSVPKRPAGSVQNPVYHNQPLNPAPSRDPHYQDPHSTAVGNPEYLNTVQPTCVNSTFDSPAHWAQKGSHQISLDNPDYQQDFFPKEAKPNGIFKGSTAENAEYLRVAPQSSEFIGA
Chain of NEK5 (Q6P3R8 whole entry): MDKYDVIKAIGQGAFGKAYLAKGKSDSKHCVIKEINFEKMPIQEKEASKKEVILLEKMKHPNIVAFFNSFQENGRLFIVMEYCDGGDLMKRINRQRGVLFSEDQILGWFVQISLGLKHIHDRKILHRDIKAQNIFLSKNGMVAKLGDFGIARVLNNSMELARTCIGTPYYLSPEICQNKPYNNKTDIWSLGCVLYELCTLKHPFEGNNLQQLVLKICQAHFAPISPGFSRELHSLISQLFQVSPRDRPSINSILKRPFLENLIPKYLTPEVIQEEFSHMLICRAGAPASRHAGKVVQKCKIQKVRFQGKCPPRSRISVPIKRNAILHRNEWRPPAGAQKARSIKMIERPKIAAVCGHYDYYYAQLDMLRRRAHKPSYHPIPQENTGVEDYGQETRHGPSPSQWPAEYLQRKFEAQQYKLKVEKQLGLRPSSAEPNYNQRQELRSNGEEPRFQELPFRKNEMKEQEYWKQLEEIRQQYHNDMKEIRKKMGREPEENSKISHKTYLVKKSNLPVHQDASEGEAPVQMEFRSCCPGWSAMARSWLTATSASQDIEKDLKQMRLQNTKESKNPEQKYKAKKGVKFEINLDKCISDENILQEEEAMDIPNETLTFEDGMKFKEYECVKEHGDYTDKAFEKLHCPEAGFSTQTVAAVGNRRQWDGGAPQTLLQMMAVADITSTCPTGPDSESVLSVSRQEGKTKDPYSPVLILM
Chain of PIK3CA(H1047Y) (P42336 whole entry H1047Y): as the sequence (P42336 whole entry E542K) above, with K542E, H1047Y counted along it

As for `CNS(=O)(=O)c1ccc(N(C)C)c(Nc2ncnc3cc(OC)c(OC)cc23)c1` [compound 7, 3-((6,7-dimethoxyquinazolin-4-yl)amino)-4-(dimethylamino)-N-methylbenzenesulfonamide], the inhibition at 1 µM in test [1] came out at 0%; in test [2] it was 9%; in [3], 0%; in test [4], 29%; in [5], 25%; in test [6], 0%. Further, the inhibition at 1 µM in test [7] is 13%; in test [8], 0%; in [9] it was 0%; in test [10] it was 0%; in test [11], 44%; in test [12] it was 25%. In addition, the inhibition at 1 µM in test [13] was found to be 33%; in test [14], 21%; in test [15], 25%; in test [16], 17%; in [17], 17%; in test [18] it was 7%. For the same molecule, the inhibition at 1 µM in test [19] worked out at 0%; in [20], 7%; in test [21], 0%; in test [22], 18%; in test [23], 26%.
